Patent US10028961B2, “Therapeutically active compounds and their methods of use” (AGIOS PHARMACEUTICALS, INC., priority 2013, dated 2018)
Where two headings read alike, the source gives them in different places.

Tests used:
IDH2 R140Q = IDH2 R140Q (Homo sapiens (Human), UniProt P48735, R140Q); experiment: In vitro assay for IDH2m R140Q inhibitors, cofactor depletion assay; format: biochemical; details: IDH2 R140Q enzyme
From the text: The following describes the experimental procedures used to obtain data on column 7 of Table 4.
The reaction is terminated by the addition of a second enzyme, diaphorase, and a corresponding substrate, resazurin. Diaphorase reduces resazurin to the highly fluorescent resorufin with the concomitant oxidation of NADPH to NADP, both halting the IDH2 reaction by depleting the available cofactor pool and facilitating quantitation of the amount of cofactor remaining after a specific time period through quantitative production of an easily detected fluorophore.
The test compound is then incubated for one hour at room temperature with the enzyme; before starting the IDH2 reaction with the addition of 10 μl of substrate mix containing 4 μM NADPH and 1.6 mM α-KG in the buffer described above. After a further 16 hours of incubation at room temperature, the reaction is halted and the remaining NADPH measured through conversion of resazurin to resorufin by the addition of 25 μl Stop Mix (36 μg/ml diaphorase enzyme and 60 μM resazurin; in buffer).

[1] = system: U87MG pLVX-IDH2 R140Q-neo cells; experiment: U87MG pLVX-IDH2 R140Q-neo cell based assay, 2-HG by LC-MS
[2] = target: IDH1 wt/IDH1 R132H heterodimer (Homo sapiens (Human), UniProt O75874, R132H); experiment: In vitro assay for IDH1m R132H inhibitors, IDH1 wt/IDH1 R132H heterodimer, NADPH depletion (diaphorase/resazurin); format: biochemical
Chain of IDH1 wt/IDH1 R132H heterodimer (O75874 whole entry R132H): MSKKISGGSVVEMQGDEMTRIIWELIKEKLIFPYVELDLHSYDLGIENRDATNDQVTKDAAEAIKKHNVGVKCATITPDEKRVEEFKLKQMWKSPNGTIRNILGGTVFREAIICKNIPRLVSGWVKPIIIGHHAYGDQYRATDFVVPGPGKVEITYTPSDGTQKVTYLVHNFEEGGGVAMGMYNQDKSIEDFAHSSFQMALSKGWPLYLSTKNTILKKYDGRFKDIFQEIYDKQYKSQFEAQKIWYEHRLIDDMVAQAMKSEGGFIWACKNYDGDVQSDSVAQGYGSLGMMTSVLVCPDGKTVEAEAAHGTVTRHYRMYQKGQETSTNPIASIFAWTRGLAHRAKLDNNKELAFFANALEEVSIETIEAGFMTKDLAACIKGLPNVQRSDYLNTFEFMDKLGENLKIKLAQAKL
Chain of IDH1 wt/IDH1 R132H heterodimer (O75874 whole entry, stated change not applied): as the sequence (O75874 whole entry R132H) above, with H132R counted along it
Experimental: The following describes the experimental procedures that can be used to obtain data on columns 2 and 4 of Table 4 and column 2 of Table 5.
In the primary reaction, the reduction of α-KG acid to 2-HG is accompanied by a concomitant oxidation of NADPH to NADP. The amount of NADPH remaining at the end of the reaction time is measured in a secondary diaphorase/resazurin reaction in which the NADPH is consumed in a 1:1 molar ratio with the conversion of resazurin to the highly fluorescent resorufin.
The mixture of compound, enzyme, and cofactor is pre-incubated at room temperature for 1 hr prior to the addition of alpha-ketoglutarate. To perform the secondary reaction, 10 uL of 1× buffer containing 36 μg/ml diaphorase and […] resazurin is added to the primary reaction and incubated for a further 5 minutes at 25° C. […] Compounds or compound dilutions are prepared in 100% DMSO concentration and diluted 1:50 into the final reaction. […] IC50s are determined.
IDH1 or IDH2 wildtype (wt) and mutant heterodimers are expressed and purified by methods known in the art. […] Co-expression of IDH1wt-his and IDH1R132C-flag is carried out in sf9 insect cells. Cells (25 g) are resuspended in 250 ml of 50 mM Tirs, 500 mM NaCl, pH7.4, at 4° C. with stirring. Cells are disrupted with 4 passes through an M-Y110 Micro fluidizer (Microfluidics) set to 500 psi, and then centrifuged at 22,000 rcf for 20 min at 4° C. The supernatant is harvested and loaded at 15 cm/h on a Histrap FF 5*1 ml column (GE) which is equilibrated with 50 mM Tirs, 500 mM NaCl, pH7.4. Host cell contaminants are removed by washing the column with equilibration buffer followed by equilibration buffer containing 20 mM imidazole and 60 mM imidazole to baseline. IDH1wt-his homodimer and IDH1wt-his/IDH1R132C-flag are eluted by equilibration buffer containing 250 mM imidazole. Fractions eluted by 250 mM imidazole are pooled together and loaded at 15 cm/h onto a column pre-packed with 10 ml ANTI-FLAG® M2 Affinity Gel (Sigma), the column is equilibrated with 50 mM Tris, 500 mM NaCl, pH7.4. After washing with equilibration buffer, IDH1wt-his/IDH1R132C-flag heterodimer is eluted by equilibration buffer containing flag peptide (0.2 mg/ml). Aliquots of IDH1wt-his/IDH1R132C-flag are flash frozen in liquid N2 and stored at −80° C. Same conditions are used for the purification of IDH1wt-his/IDH1R132H-flag.

[3] = system: Neurosphere cells (TS603); experiment: Cellular assay for IDH1m R132H inhibitors, 2-HG by LC-MS in neurosphere cells (TS603); format: cell-based; details: 2-HG in media at 48 hours
Experimental: Cellular Assay for IDH1m R132H Inhibitors.
The following describes the experimental procedures that can be used to obtain data in column 4 of Table 5.
Neurosphere cells (TS603) are grown at 37 C in 5% CO2 in Stem Cell Technologies NeuroCult™ NS-A media supplemented with 1% Primocin, 1% Normocin, 0.0002% Heparin, 20 ng/mL EGF and 10 ng/mL bFGF. Cells are harvested, pelleted and resuspended in Accumax for cell dissociation and counting. Cells are counted and then resuspended in NeuroCult media with 2× heparin, EGF and bFGF at 4 million cells/10 mL media. 100 μl of cell solution are plated in each well of a 96 well with the exception of columns 1 and 12. Columns 1 and 12 contain 200 μL PBS. Compound dose responses are set up at a 2× concentration in Neurocult media without heparin, EGF and bFGF. The final concentration of DMSO is 0.25%. DMSO only control wells are plated in row H. The plates are then placed in the incubator for 48 hours. At 48 hours, 100 μl of media is removed from each well and analyzed by LC-MS for 2-HG concentrations. The cell plate is placed back in the incubator for another 24 hours. At 72 hours post compound addition, 10 mL/plate of Promega Cell Titer Glo reagent is thawed and mixed. The cell plate is removed from the incubator and allowed to equilibrate to room temperature. Then 100 μl of Promega Cell Titer Glo reagent is added to each well of media. The cell plate is then placed on an orbital shaker for 10 minutes and then allowed to sit at room temperature for 20 minutes. The plate is then read for luminescence with an integration time of 500 ms.

[4] = IDH1 wt/R132H heterodimer, NADPH/NADP, not saturated, read-out: IDH1 wt/R132H NADPH/NADP IC50 not saturated
[5] = IDH1 wt/IDH1 R132H heterodimer, 300 μM NADP (saturated), read-out: IDH1 wt/R132H NADPH/NADP IC50 saturated

Chain of IDH2 R140Q (P48735 40-452 R140Q): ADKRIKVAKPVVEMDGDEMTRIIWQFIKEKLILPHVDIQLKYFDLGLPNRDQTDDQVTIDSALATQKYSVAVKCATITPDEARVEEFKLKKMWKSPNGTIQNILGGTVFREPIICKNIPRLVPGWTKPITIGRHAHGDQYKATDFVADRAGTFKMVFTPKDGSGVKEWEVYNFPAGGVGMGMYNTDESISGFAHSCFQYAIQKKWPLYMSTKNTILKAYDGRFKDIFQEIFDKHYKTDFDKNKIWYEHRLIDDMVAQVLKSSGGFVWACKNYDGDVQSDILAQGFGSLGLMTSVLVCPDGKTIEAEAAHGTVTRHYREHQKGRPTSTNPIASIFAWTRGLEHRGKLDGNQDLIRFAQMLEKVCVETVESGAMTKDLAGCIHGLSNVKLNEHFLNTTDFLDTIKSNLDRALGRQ

Structure (SMILES) | IC50 (IDH2 R140Q) [µM] | IC50 ([1]; Homo sapiens, U-87 MG) [µM] | IC50 [2, 4] [µM] | IC50 [3] [µM] | IC50 [2, 5] [µM] | IC50 [1] [µM]
Clc1cccc(-c2nc(NC3[C@H]4COC[C@@H]34)nc(NC3[C@H]4COC[C@@H]34)n2)n1 (stereo partly drawn) [Compound 72, N^2,N^4-di((1R,5S)-3-oxabicyclo[3.1.0]hexan-6-yl)-6-(6-chloropyridin-2-yl)-1,3,5-triazine-2,4-diamine] | > 1 | 0.05 to 0.1 | – | – | – | –
c1ccc(-c2nc(NC3C4COCC43)nc(NC3C4COCC43)n2)cc1 (centres unmarked) [Compound 71] | – | 0.05 to 0.1 | – | – | – | –
CC(C)Nc1nc(NC2CCCOC2)nc(-c2ccccc2)n1 (centres unmarked) [Compound 69, N^2-isopropyl-6-phenyl-N^4-(tetrahydro-2H-pyran-3-yl)-1,3,5-triazine-2,4-diamine] | – | 0.1 to 1 | – | – | – | –
C[C@@H](Nc1nc(N[C@H](C)C(F)(F)F)nc(-c2cccc(C(F)(F)F)n2)n1)C(F)(F)F [Compound 335] | – | – | – | < 0.05 | < 0.05 | –
C[C@H](Nc1nc(Nc2ccnc(C3(C#N)CC3)c2)nc(-c2cncc(C(F)F)n2)n1)C(F)(F)F [Compound 337] | – | – | – | < 0.05 | < 0.05 | –
C[C@@H](Nc1nc(N[C@H](C)C2CC2)nc(-c2cncc(Cl)c2)n1)C1CC1 [Compound 278] | > 1 | > 1 | 0.1 to 1 | – | – | –
FC1(F)CCC(Nc2nc(NC3CCC(F)(F)CC3)nc(-c3cc(C(F)(F)F)ccn3)n2)CC1 [Compound 318] | – | – | > 1 | ≥ 1 | – | –
C[C@@H](Nc1nc(N[C@H](C)C2CC2)nc(-c2cccc3[nH]ccc23)n1)C1CC1 [Compound 396] | 0.05 to 0.1 | – | – | – | > 1 | 0.05 to 0.1
N#CC1(c2cc(Nc3nc(NC4CCC(F)(F)CC4)nc(-c4cncc(C(F)F)n4)n3)ccn2)CC1 [Compound 338] | – | – | – | < 0.05 | 0.05 to 0.1 | –
CC(C)(O)CNc1nc(Nc2cc(F)cc(C(F)(F)F)c2)nc(-c2cccc(C(C)(F)F)n2)n1 [Compound 397] | < 0.05 | < 0.05 | – | – | 0.1 to 1 | –

More lines, now with the values ahead:

IC50 (IDH2 R140Q) [µM] | IC50 ([1]; Homo sapiens, U-87 MG) [µM] | IC50 [2, 4] [µM] | IC50 [3] [µM] | IC50 [2, 5] [µM] | IC50 [1] [µM] | Structure (SMILES)
– | – | 0.05 to 0.1 | 0.05 to 0.1 | – | – | FC1(F)CCC(Nc2nc(NC3Cc4cc(Br)cc(Br)c4C3)nc(-c3cccc(C(F)(F)F)n3)n2)C1 (centres unmarked) [Compound 254]
– | – | < 0.05 | < 0.05 | – | – | FC1(F)CCC(Nc2nc(NC3Cc4ccc(Br)cc4C3)nc(-c3cccc(C(F)(F)F)n3)n2)C1 (centres unmarked) [Compound 225]
< 0.05 | < 0.05 | – | – | – | – | FC1(F)CC2(CC(Nc3nc(Nc4ccnc(C(F)(F)F)c4)nc(-c4cccc(C(F)(F)F)n4)n3)C2)C1 [Compound 257]
< 0.05 | – | – | – | 0.05 to 0.1 | – | N#CC1(c2cc(Nc3nc(NCC4CC4(F)F)nc(-c4cccc(C(F)(F)F)n4)n3)ccn2)CC1 (centres unmarked) [Compound 362]
– | – | < 0.05 | < 0.05 | – | – | FC1(F)CCC(Nc2nc(NC3CC(c4ccccc4)C3)nc(-c3cccc(C(F)(F)F)n3)n2)C1 (centres unmarked) [Compound 208]
– | – | < 0.05 | < 0.05 | – | – | FC1(F)CCC(Nc2nc(NC3CCN(c4ccccc4)C3)nc(-c3cccc(C(F)(F)F)n3)n2)C1 (centres unmarked) [Compound 219]
> 1 | > 1 | – | – | – | – | CN1CCC(Nc2nc(NC3CCC(F)(F)C3)nc(-c3cccc(C(F)(F)F)n3)n2)C1 (centres unmarked) [Compound 326]
0.05 to 0.1 | 0.05 to 0.1 | 0.1 to 1 | – | – | – | FC1(F)CC(Nc2nc(NC3CC(F)(F)C3)nc(-c3cccc(OC(F)(F)F)n3)n2)C1 [Compound 277]
